In PMC9916441, “Resveratrol Derivative Exhibits Marked Antiproliferative Actions, Affecting Stemness in Pancreatic Cancer Cells” (International Journal of Molecular Sciences, 2023):
Where two headings read alike, the source gives them in different places.

Key:
[1] = test system: AsPC-1; experiment: Colony formation assay; type: cell-based, human; settings: AsPC-1, 20 µM, 72 h treatment
Method: (§1) A colony formation assay was performed as previously described. Briefly, the PC cells were seeded in 6-well plates, incubated for 24 h, and then treated for 72 h with 20 μM DF5, DF12, and RSV or with vehicle (DMSO) as indicated. After 4 days, following methanol fixation and crystal violet staining, the colonies of at least 30 cells were counted.

[2] = test system: BxPC-3; experiment: Colony formation assay; type: cell-based, human; settings: BxPC-3, 20 µM, 72 h treatment
Method: as §1

[3] = test system: Capan-2; experiment: Colony formation assay; type: cell-based, human; settings: Capan-2, 20 µM, 72 h treatment
Method: as §1

[4] = test system: AsPC-1; experiment: Flow cytometry immunophenotyping of CD133+EpCAM+ cancer stem-like subpopulation; type: cell-based, human; settings: AsPC-1, 20 μM, 72 h
Method: (§2) The expression of CD133 and EpCAM surface antigens was evaluated using flow cytometry. Briefly, the PC cells were seeded in 6-well plates and treated for 72 h with 20 μM DF5, RSV, or with vehicle (DMSO). After treatment, the cells were collected in PBS and stained at room temperature in the dark for 30 min with PE-CD133, FITC-EpCAM antibodies, and Reactive Dye. After labeling, the samples were washed in PBS by centrifugation at 1500 rpm for 10 min, to remove excess antibodies. Flow cytometer performance, stability, and data reproducibility were daily checked by using the CS&T quality control Module (BD Biosciences). The gating strategy and the evaluation of non-specific fluorescence was determined using fluorescence minus one (FMO) controls. The data were acquired with FACSVerse analyzer equipped with a volumetric count module (BD Biosciences, San Jose, CA, USA) and are expressed as the percentage of positive cells.

[5] = test system: BxPC-3; experiment: as above; type: cell-based, human; settings: BxPC-3, 20 μM, 72 h
Method: as §2

[6] = test system: Capan-2; experiment: as above; type: cell-based, human; settings: Capan-2, 20 μM, 72 h
Method: as §2

[7] = PAMPA-GI permeability; type: in vitro ADME; settings: for Papp at 16 h, 500 µM: PAMPA, 16 h incubation, read-out: Permeability, Pe
Method: A PAMPA was used to evaluate the passive intestinal absorption of DF5. The system consisted in a 96-well, MultiScreen-IP PAMPA filter plate (donor plate) equipped with a PVDF membrane filter and a 96-well PTFE acceptor plate. The PVDF membrane was coated with 5 µL of a 2% w/v lecithin in n-dodecane solution. […] Donor and acceptor solutions, both containing 5% of DMSO v/v%, were employed to avoid precipitation of the drug. The system was assembled placing the drug-filled donor plate into the acceptor plate and incubated at room temperature for 16 h. Each solution was analyzed using HPLC and the permeability (Pe, nm/s) was determined as previously reported.

Papp at 16 h, 500 µM ([7]; pH 5 (donor and acceptor)): 6.02 ×10⁻⁶ cm/s
Papp at 16 h, 500 µM ([7]; pH 6.5 (donor and acceptor)): 9 ×10⁻⁶ cm/s
Papp at 16 h, 500 µM ([7]; pH 7.4 (donor and acceptor)): 2.59 ×10⁻⁶ cm/s
SMILES: Cc1ccc(/C=C/c2ccc(O)cc2)cc1 [DF5]
effect on clonogenicity (colony formation) [1]: totally abolish colony formation
effect on clonogenicity (colony formation) [2]: totally abolish colony formation
effect on clonogenicity (colony formation) [3]: more drastic, prominent, and consistent effects on PC cell clonogenicity
effect on percentage of CD133+EpCAM+ cancer stem-like subpopulation [4]: sharp and statistically significant reduction
effect on percentage of CD133+EpCAM+ cancer stem-like subpopulation [5]: statistically significant impact
effect on percentage of CD133+EpCAM+ cancer stem-like subpopulation [6]: sharp and statistically significant reduction
Classification (GI permeation) ([7]; pH 5): Pe+ (Pe+ (indicative of high GI permeation): Pe (nm s^−1) > 10)
Classification (GI permeation) ([7]; pH 6.5): Pe+ (Pe+ (indicative of high GI permeation): Pe (nm s^−1) > 10)
Classification (GI permeation) ([7]; pH 7.4): Pe+ (Pe+ (indicative of high GI permeation): Pe (nm s^−1) > 10)
